Laboratory results as given in patent US6316421A, “Pentaerythritol lipid derivatives and nuleic-acid complexes” (The Regents of the University of California, priority 2000, dated 2001).

Tests used:
[1] = Relative cytotoxicity by MTS assay (CellTiter 96) of lipoplex-treated NIH 3T3 cells; format: cell-based; settings: mouse, nih 3t3 cells, 1:1 lipid:DOPE, 2:1 charge ratio, FIG. 2, read-out: treated cells impaired
Procedure: (§1) FIG. 2 is a bar graph showing luciferase transfection results as the mean (n=4) and standard deviation of total luciferase light units (RLU, left vertical axis) obtained from NIH 3T3 cells lysed after administration of […] of DNA. Relative cytotoxicity, depicted by the solid line, is plotted according to the right vertical axis, calculated as described in Example 3. With the exception of DOTAP, 1:1 cationic lipid:DOPE liposomes at a 2:1 molar charge ratio (lipid charge to DNA phosphate charge) were used for lipoplex formation. DOTAP was used without a co-lipid.
(§2) Cell viability was determined by evaluating the […] dehydrogenase activity of post-transfected cells prior to lysis using the CellTiter 96 Aqueous Non-Radioactive Cell Proliferation Assay (Promega). The tetrazolium salt solution (Owen's Reagent; […]) was added to each well and the 24 well plate was then gently agitated to ensure complete mixing. After incubation for an additional 3-4 h, each well was assayed for formazan production by removing an aliquot of the medium and diluting with 9 parts phosphate buffered saline (PBS) solution. The dilution was conducted in a 1.5 mL methylacrylate UV/VIS disposable cell, and the relative amount of formazan was determined by taking absorbance reading at 490 nm using PBS as the reference. The mean (n=4) of the absorbance values was calculated and compared to the mean absorbance value for non-transfected cells. The final results were expressed in terms of relative cytotoxicity. Relative cytotoxicity was calculated by subtracting from one the ratio of mean absorbance value for transfected cells over mean absorbance value for untreated cells. A relative cytotoxicity value of zero implies no difference from untreated cells, no measurable cytotoxicity. The maximum value of one implies total cell death for treated cells, no measurable formazan production indicating significant toxicity. Negative values may reflect enhanced formazan production as a consequence of cell growth relative to untreated cells.
(§3) To test whether (DMTM(Gly)) and (DOTM(GLY)) ameliorate lipid-induced cytotoxicity, a cell viability assay was performed. The relative cytotoxicity for these lipids and the popular transfection lipids DOTAP and DC-Chol was determined by measuring the […] dehydrogenase activity for lipoplex-treated cells. The comparative assay was performed using NIH 3T3 and 16HBE14o- cells, and the results are plotted in FIGS. 2 and 3, respectively. A requisite for evaluation of cytotoxicity is the concurrent determination of relative transfection activity. Thus, the cationic lipids were evaluated for relative cytotoxicity immediately prior to determination of luciferase activity. […]

NIH 3T3 cells [2] = test: as above; format: cell-based; settings: 1:1 lipid:DOPE, 2:1 charge ratio, FIG. 2
Procedure: as §1, §2, §3

[3] = system: NIH 3T3 and 16HBE14o- cells; test: GFP reporter gene transfection (pEGFP-C1), fluorescence microscopy; format: cell-based; settings: 48 h post-transfection
Procedure: (§4) Fluorescence experiments were conducted by transfecting the pEGFP-C1 C-Terminal protein fusion vector (Clontech, Palo Alto, Calif.) into NIH 3T3 and 16HBE14o- cells. The transfection protocol was identical to that of luciferase expression experiments in Example 1. Cells were grown for 48 h post-transfection, fixed with 3.7% formaldehyde, and viewed on a Zeiss ICM 405 inverted microscope with high resolution long-working distance objectives. Cells were photographed on the fluorescein channel and with phase contrast optics with a 40× water objective, using T-Max 400 (Kodak, Rochester, N.Y.) film.
(§5) To probe relationships between cellular uptake, expression, and cytotoxicity, a transfection study was conducted using the GFP reporter gene. Fluorescent microscopy of cells treated with GFP-encoded plasmid is a sensitive tool for determining the occurrence of transgene expression. […] Thus, the onset of cytotoxicity precedes gene expression.

[4] = system: NIH 3T3 and 16HBE14o- cells; test: Phase contrast microscopy of cells transfected with GFP lipoplexes; format: cell-based; settings: for cell morphology by phase contrast: 48 h post-transfection, cell line not stated
Procedure: as §4, §5

NIH 3T3 cells [5] = test: Luciferase transfection (pGL3-control plasmid), NIH 3T3 cells; format: cell-based; settings: for facilitating the intracellular delivery of plasmid DNA: Example 2 conclusion, luciferase plasmid
Procedure: FIG. 1 is a bar graph showing the transfection activity of DMTM(Gly):DOPE liposomes as a function of the mole percent DOPE. DNA transfections were performed using NIH 3T3 cells. Lipoplexes were formulated at a 2:1 molar charge ratio (lipid charge to DNA phosphate charge). The values shown are the mean (n=4) and standard deviation of total luciferase light units (RLU) obtained from cells lysed after administration of […] DNA.
as §1
(§6) a.) Liposome Formulation.
(§7) The cationic lipid […] and DOPE […] were added as chloroform solutions to a 1.9 mL sample vial. The chloroform was evaporated using a stream of dry argon at room temperature. The resulting thin lipid films were placed under vacuum for 2-3 h to ensure that all traces of solvent were removed. Sterile water (1.0 mL) was then added to hydrate the lipid thin films, and the resultant suspension was vigorously mixed (vortex) at room temperature with occasional warming in a 60° C. water bath. The resultant 1.0 mM lipid suspension was used within 2 h of hydration.
(§8) NIH 3T3 cells were obtained from ATCC (CRL 1658) and grown in Dulbecco's Modified Eagle's Medium (DMEM; GIBCO) with 10% fetal calf serum (GIBCO) in a humidified 10% CO2 incubator at 37° C. Human bronchial epithelial cells (16HBE14o-) were cultured in Eagle's modified essential medium (MEM; GIBCO) supplemented with 10% fetal bovine serum (GIBCO), 1% glutamine (GIBCO), 1% penicillin and streptomycin (GIBCO), and grown in a 5% humidified CO2 incubator at 37° C. Both cell lines were subcultured into sterile, untreated flasks.
The NIH 3T3 cells were plated at 50,000 cells per well on a standard 24 well plate (Corning, Corning, N.Y.) 24 h prior to transfection. Cells were approximately 80% confluent at the time of transfection. The HBE cells were plated at 50,000 cells/well on a 24 well tissue culture plate coated with fibronectin, vitrogen (collagen), and bovine serum albumin as previously described (Gruenert, D. C., Basbaum C. B., and Widdicombe J. H. (1990) In Vitro Cell Dev Biol., 26, 411-418.) and were transfected as subconfluent monolayers 24 h prior to transfection. The growth media was removed via aspiration and each well was washed once with 0.5 mL buffered saline and overlaid with only MEM.
Cationic lipid-DNA complexes were prepared 15-40 mins prior to transfection. The pGL3-control vector encoding for firefly luciferase (Promega, Madison, Wis.) was. slowly added to a diluted (DMEM or MEM) quantity of the cationic lipid:DOPE suspension in a polystyrene tube. (Falcon #2058), and the lipid-DNA complex was diluted to a final volume of […]. Typically (e.g. using DOTAP), […] of the lipid suspension was used to complex […] of the plasmid DNA, yielding a 2:1 cationic lipid:DNA phosphate molar ratio. Immediately on DNA addition, the suspension was vortexed and allowed to incubate for 15 min at room temperature. A […] aliquot of the resultant lipid-DNA suspension was added to each well […]. The treated cells were then incubated for 4 h at 37° C. Control wells were treated with […] of medium without supplement. At this time, […] of the appropriate growth media including 10% FCS was added to all wells and the cells cultured for 48 h prior to lysis and analysis.
(§9) Relative luciferase activity was determined by using the Enhanced Luciferase Assay Kit and a Moonlight 2010 luminometer (Analytical Luminescence Laboratories, Sparks, Md.). […]

16HBE14o- cells = test: Luciferase transfection (pGL3-control plasmid), 16HBE14o- cells; format: cell-based, Human; settings: FIG. 3
Procedure: as §1, with “FIG. 3” for “FIG. 2”, “from 16HBE14o-” for “from NIH 3T3”
as §6, §7
as §8, with “Both cell lines were subcultured into sterile, untreated flasks.” left out
Cationic lipid-DNA complexes were prepared 15-40 mins prior to transfection. The pGL3-control vector encoding for firefly luciferase (Promega, Madison, Wis.) was. slowly added to a diluted (DMEM or MEM) quantity of the cationic lipid:DOPE suspension in a polystyrene tube. […]
as §9

Structure (SMILES) | cytotoxicity [1] [%] | cytotoxic response (MTS relative cytotoxicity) (NIH 3T3 cells [2]) | GFP gene transfer (presence of fluorescent cells) [3] | cell morphology by phase contrast [4] | vacuolization compared with DOTM(Gly), DOTAP, or DMTM(Gly) ([4]; phase contrast) | facilitating the intracellular delivery of plasmid DNA (NIH 3T3 cells [5]) | transfection activity compared with DOTAP and DC-Chol (NIH 3T3 cells [5]; NIH 3T3, 1:1 lipid:DOPE, FIG. 2) | transfection activity on co-formulation with DOPE (DOPE titration) (NIH 3T3 cells [5]; NIH 3T3, equimolar lipid and DOPE, 2:1 molar charge ratio, FIG. 1) | effect of larger percentage DOPE on transfection activity (NIH 3T3 cells [5]; NIH 3T3, larger percentage DOPE than equimolar, FIG. 1) | transfection activity compared with DOTAP and DC-Chol (16HBE14o- cells; 1:1 lipid:DOPE) | lipid:DOPE optimization results compared with DMTM(Gly) (NIH 3T3 cells [5]; DOPE titration, compared with DMTM(Gly):DOPE) | expression in comparison to DOTAP and DC-Cholesterol (NIH 3T3 cells [5]; NIH 3T3, 1:1 lipid:DOPE (DOTAP without co-lipid), FIG. 2) | transfection activity compared with dimyristoyl analog (NIH 3T3 cells [5]; NIH 3T3, 1:1 lipid:DOPE, 2:1 charge ratio, FIG. 2) | expression in comparison to DOTAP and DC-Cholesterol (16HBE14o- cells; 1:1 lipid:DOPE (DOTAP without co-lipid)) | transfection activity compared with dimyristoyl analog (16HBE14o- cells; 1:1 lipid:DOPE, 2:1 charge ratio)
CC(C)CCC[C@@H](C)[C@H]1CC[C@H]2[C@@H]3CC=C4C[C@@H](OC(=O)NCCN(C)C)CC[C@]4(C)[C@H]3CC[C@]12C [DC-Chol, 3,β-(N-(N',N'-dimethylaminoethane)-carbamoyl)cholesterol, reference compound] | ~60 | significantly more cytotoxic | active in facilitating gene transfer | dense regions of large vacuoles | significantly greater vacuolization | – | – | – | – | – | – | – | – | – | –
CCCCCCCCCCCCCC(=O)OCC(COC(=O)CCCCCCCCCCCCC)(COC(=O)C[N+](C)(C)C)COC(=O)C[N+](C)(C)C [DMTM(Gly), dimyristoyl bis(N,N,N-trimethylglycyl) tetraester] | – | did not induce a cytotoxic response | – | – | – | capable of facilitating the intracellular delivery of plasmid DNA | transfection activities similar to DOTAP and DC-Chol | near optimal transfection activity | only negligible improvement | transfection activities similar to DOTAP and DC-Chol | – | – | – | – | –
CCCCCCCC/C=C\CCCCCCCC(=O)OCC(COC(=O)CCCCCCC/C=C\CCCCCCCC)(COC(=O)C[N+](C)(C)C)COC(=O)C[N+](C)(C)C [DOTM(Gly), dioleoyl bis (N,N,N-trimethylglycyl) tetraester] | – | did not induce a cytotoxic response | active in facilitating gene transfer | normal cellular morphology | – | capable of facilitating the intracellular delivery of plasmid DNA | – | – | – | – | similar | reaching an order of magnitude greater expression | greater transfection activity than the dimyristoyl analog | reaching an order of magnitude greater expression | greater transfection activity than the dimyristoyl analog
